Target: Leucine-rich repeat serine/threonine-protein kinase 2 (Homo sapiens, UniProt Q5S007)
Test: LRRK2 Enzymatic Assay: LRRKtide substrate (peptide sequence RLGRDKYKTLRQIRQ, derived from human ezrin [amino acids 561-573], moesin [amino acids 539-553] and radixin [amino acids 558-570], obtained from SignalChem, catalogue #L10-58, reconstituted in 20 mM Tris-HCl at pH 7.5 to a final concentration of 1 mg/mL, assay concentration 20 μM) and recombinant human LRRK2 (catalytic domain only [amino acids 970-2527], GST-tagged, expressed in insect cells, obtained from ThermoFisher Scientific, catalogue #PV4874, 0.35 mg/mL, assay concentration 30 nM) were mixed in assay buffer (20 mM Hepes pH 7.5, 10 mM MgCl, 1 mM EGTA, 0.02% Brij35, 0.02 mg/ml BSA, 0.1 mM NaVO, 2 mM DTT, 1% DMSO). Compounds of interest (in DMSO, serial 3-fold dilution from 10 μM to 0.5 nM) or control (1% DMSO) were dispensed into the kinase reaction mixture by Acoustic technology (Echo550; nanoliter range). After incubation at room temperature for 20 minutes, the kinase reaction was initiated by addition of [P]-ATP (Specific activity 10 μCi/μl) and the mixture was incubated at room temperature for 2 hours. The reaction was then stopped by spotting the reaction mixture on strips of phosphocellulose P81 paper. Following washing, the radioactivity of the P81 paper was measured and kinase activity data were expressed as the percent remaining kinase activity in test samples compared to vehicle (dimethyl sulfoxide) reactions.

Leucine-rich repeat serine/threonine-protein kinase 2, sequence (Q5S007 whole entry, the tested form may be a part): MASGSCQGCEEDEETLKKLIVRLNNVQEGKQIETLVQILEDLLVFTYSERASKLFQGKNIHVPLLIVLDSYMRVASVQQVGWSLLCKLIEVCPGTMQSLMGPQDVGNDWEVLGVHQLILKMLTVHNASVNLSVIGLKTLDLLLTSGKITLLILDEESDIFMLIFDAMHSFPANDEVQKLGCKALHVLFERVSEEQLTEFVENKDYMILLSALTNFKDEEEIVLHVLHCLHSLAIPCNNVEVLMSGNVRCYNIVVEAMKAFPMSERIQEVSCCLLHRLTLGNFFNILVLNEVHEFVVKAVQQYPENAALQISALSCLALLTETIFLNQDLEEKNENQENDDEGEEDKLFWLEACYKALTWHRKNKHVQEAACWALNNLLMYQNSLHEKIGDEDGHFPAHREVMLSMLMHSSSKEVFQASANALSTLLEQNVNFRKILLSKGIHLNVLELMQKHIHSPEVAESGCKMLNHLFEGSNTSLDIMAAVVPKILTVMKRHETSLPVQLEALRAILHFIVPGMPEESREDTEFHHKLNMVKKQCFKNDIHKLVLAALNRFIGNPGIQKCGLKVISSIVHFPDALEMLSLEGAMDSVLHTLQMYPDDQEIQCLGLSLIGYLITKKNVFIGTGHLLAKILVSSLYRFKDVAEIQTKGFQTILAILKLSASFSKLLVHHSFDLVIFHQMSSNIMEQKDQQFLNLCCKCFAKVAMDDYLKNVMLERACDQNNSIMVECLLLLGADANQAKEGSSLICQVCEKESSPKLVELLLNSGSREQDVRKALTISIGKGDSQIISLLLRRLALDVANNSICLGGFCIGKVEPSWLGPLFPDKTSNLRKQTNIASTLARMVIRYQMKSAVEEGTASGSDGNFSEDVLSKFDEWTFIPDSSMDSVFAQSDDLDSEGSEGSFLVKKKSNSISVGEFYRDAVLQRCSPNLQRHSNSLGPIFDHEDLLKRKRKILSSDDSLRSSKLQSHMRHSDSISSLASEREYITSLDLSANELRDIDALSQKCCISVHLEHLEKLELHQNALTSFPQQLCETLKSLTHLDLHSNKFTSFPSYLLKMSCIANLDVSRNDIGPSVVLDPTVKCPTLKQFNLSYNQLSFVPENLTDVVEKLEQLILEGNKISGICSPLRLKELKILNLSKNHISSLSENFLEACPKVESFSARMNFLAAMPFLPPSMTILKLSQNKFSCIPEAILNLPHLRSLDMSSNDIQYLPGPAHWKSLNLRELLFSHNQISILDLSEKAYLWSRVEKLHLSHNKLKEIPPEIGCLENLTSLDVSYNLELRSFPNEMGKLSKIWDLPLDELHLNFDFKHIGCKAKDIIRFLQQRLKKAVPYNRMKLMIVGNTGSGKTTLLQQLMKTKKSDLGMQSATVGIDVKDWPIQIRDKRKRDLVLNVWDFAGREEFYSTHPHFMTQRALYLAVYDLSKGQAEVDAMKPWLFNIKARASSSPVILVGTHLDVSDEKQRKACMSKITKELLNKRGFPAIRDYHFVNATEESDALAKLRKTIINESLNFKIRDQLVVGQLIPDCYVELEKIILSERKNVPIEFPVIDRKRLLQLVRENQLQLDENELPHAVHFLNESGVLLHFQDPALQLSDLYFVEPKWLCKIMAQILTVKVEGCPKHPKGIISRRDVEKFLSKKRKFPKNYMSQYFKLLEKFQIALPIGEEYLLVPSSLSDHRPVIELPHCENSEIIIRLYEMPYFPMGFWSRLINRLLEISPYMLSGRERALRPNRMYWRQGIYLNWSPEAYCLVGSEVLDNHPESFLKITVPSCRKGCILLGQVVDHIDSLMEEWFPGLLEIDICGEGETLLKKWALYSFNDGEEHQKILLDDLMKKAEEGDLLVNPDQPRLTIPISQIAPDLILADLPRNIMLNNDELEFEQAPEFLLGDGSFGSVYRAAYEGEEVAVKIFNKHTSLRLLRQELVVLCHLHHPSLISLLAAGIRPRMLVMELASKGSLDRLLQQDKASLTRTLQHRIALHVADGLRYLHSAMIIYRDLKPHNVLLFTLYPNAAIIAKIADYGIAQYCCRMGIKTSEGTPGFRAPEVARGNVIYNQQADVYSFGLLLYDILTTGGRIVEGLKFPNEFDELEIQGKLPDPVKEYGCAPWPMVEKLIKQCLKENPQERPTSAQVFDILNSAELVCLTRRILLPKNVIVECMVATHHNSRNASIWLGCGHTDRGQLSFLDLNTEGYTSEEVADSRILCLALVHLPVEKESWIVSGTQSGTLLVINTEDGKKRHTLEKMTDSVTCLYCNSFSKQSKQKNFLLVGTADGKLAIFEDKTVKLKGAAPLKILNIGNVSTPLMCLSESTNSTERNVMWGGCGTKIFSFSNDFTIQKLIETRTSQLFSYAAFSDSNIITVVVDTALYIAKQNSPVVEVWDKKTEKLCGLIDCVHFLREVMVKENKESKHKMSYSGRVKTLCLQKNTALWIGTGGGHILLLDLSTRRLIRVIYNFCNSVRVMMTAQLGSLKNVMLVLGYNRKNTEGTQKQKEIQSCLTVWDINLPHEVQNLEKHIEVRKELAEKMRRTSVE

`CN[C@H]1CC[C@H](COc2nc(Nc3cn(C(C)(C)C#N)nc3C)ncc2C2CC2)CC1` and `CN[C@H]1CC[C@H](COc2nc(Nc3cnn(C(C)C)c3)ncc2Cl)CC1` cannot be ordered by IC50: less than 50 nM for the first, less than 50 nM for the second.

First: FC(F)CN[C@H]1CC[C@H](COc2nc(Nc3ccc(N4CCOCC4)cc3)ncc2Cl)CC1
Second: CC(N[C@H]1CC[C@H](COc2ccnc(Nc3ccc(N4CCOCC4)cc3)n2)CC1)C(F)(F)F (stereo partly drawn)
The IC50 of the first is lower: less than 50 nM for the first, greater than 400 nM for the second.

`CC(=O)N[C@H]1CC[C@@H](COc2nc(Nc3ccc(N4C[C@@H](C)O[C@@H](C)C4)cc3)ncc2F)C1` and `CC(=O)N[C@H]1CC[C@H](COc2nc(Nc3ccc(N4C[C@@H](C)O[C@@H](C)C4)cc3)ncc2C)CC1` cannot be ordered by IC50: less than 50 nM for the first, less than 50 nM for the second.

`CC(=O)N[C@H]1CC[C@H](COc2nc(Nc3cnn(CCO)c3)ncc2F)CC1` and `Cc1nn(C(C)(C)C#N)cc1Nc1ncc(F)c(OCC2CCNCC2(F)F)n1` (stereo not drawn) cannot be ordered by IC50: less than 50 nM for the first, less than 50 nM for the second.
